Experimental data reported in patent US20030166606A1, “5'-deoxy-n-(substituted oxycarbonyl)-5-fluorocytosine and derivatives thereof, method of preparing same, and anticancer composition comprising same as active ingredients” (priority 2003, published 2003).
Values after ≈ are worked out from the molar mass of the structure shown. Like-named read-outs stand apart in the source and are kept apart here.

What was measured:
[1] = test system: SK-MEL-2 (melanoma cancer); test: MTT cell toxicity to human cancer cells, SK-MEL-2; format: cell-based; details: for IC50 Cancer cell line SK-MEL2: 72 hours, Table 3
Method: (§1) For measuring in vitro anticancer activity of 5′-deoxy-N^4-propargyloxycarbonyl-5-fluorocytosine-5′-carboxylic acid (R^3=propargyl, compound of 2a) using 5-Fu as a reference compound, cell toxicity to human cancer cell was evaluated. The cancer cells used were A549 (lung cancer), HCT15 (colon cancer), SK-OV-3 (ovarian cancer), and SK-MEL-2 (melanoma cancer).
(§2) The cancer cells were incubated in an incubator with a constant humidity at 37° C. and 5% CO2, and an RPMI medium with the addition of 10% fetal bovine serum was used for a basic medium. In order to identify cell toxicity, the cancer cells in a logarithmic phase were inoculated at 2-5×10^4 cells per well of a 96-well plate, and incubated for 24 hours. A sample solution of 5-FU and 5′-deoxy-N^4-propargyloxycarbonyl-5-flurocytosine-5′-carboxylic acid was stepwisely added to the well and incubated for 72 hours. 20 μl of 5 mg/ml MTT reacting solution dissolved in a physiological saline solution was added to the well of the incubated plate and incubated for 4 hours. The produced formazan crystal was dissolved in dimethylsulfoxide and absorbance of each well was measured at 540 nm to calculate a number of living cells. The absorbance of the well with the medium and without cell was set to 0%, that of the well without the sample was set to 100%, and the concentration corresponding to 50% was called an IC50 (μg/ml) value.
(§3) In order to measure anticancer activity of 5′-deoxy-N-alkyloxycarbonyl-5-fluorocytosine-5′-carboxylic acid (compound of Formula 2a) of the present invention using 5-FU as a control, the cell toxicity to human cancer cells was measured. The human cancer cells used were A549 (lung cancer), HCT15 (colon cancer), SK-OV-3 (ovarian cancer), and SK-MEL-2 (melanoma cancer).
(§4) The cancer cells were cultured in an incubator with a constant humidity at 37° C. and 5% CO2, and an RPMI medium with 10% fetal bovine serum was used for a medium. In order to measure cell toxicity, the cancer cells in a logarithmic phase were inoculated into 2 to 5×10^4 cells per well of a 96-well plate, incubated for 24 hours, and a sample solution of a stepwise dilution of 5-FU and 5′-deoxy-N^4-pentyloxycarbonyl-5-fluorocytocine-5′-carboxylic acid were added thereto followed by incubating for 72 hours. 20 μl of 5 mg/ml of MTT reacting solution dissolved in a physiological saline solution was added to each well of the incubated plate, incubated for 4 hours, the produced formazan crystal was dissolved in dimethylsulfoxide, and the absorbance of each well was measured at a wavelength of 540 nm to calculate the number of living cells.

HCT15 (colon cancer) = test: MTT cell toxicity to human cancer cells, HCT15; format: cell-based; details: for IC50: Homo sapiens, HCT-15, 72 hours; for IC50 Cancer cell line HCT15: 72 hours, Table 3
Method: as §1, §2, §3, §4

A549 (lung cancer) = test: MTT cell toxicity to human cancer cells, A549; format: cell-based; details: for IC50 Cancer cell line A549: 72 hours, Table 3
Method: as §1, §2, §3, §4

SK-OV-3 (ovarian cancer) = test: MTT cell toxicity to human cancer cells, SK-OV-3; format: cell-based; details: for IC50: Homo sapiens, SK-OV-3, 72 hours; for IC50 Cancer cell line SK-OV-3: 72 hours, Table 3
Method: as §1, §2, §3, §4

[2] = test system: mouse tumor cell line L1210; test: Anticancer activity on L1210 in BDF1 mice, increased life span (Example 34, Table 4); format: in vivo; details: for Average life maintenance day: control 8.8
Method: Capecitabine (5′-deoxy-N^4-(pentyloxycarbonyl)-5-fluorocytosine (in Formula 1, R^a=pentyl, R^b=hydrogen) which has good anticancer activity among. 5′-deoxy-N-alkyloxycarbonyl-5-fluorocytosine derivatives disclosed in European Patent No. 602454 was used for a control, 5′-deoxy-N^4-propazyloxycarbonyl-5-fluorocytosine-5′-carboxylic acid (Formula 2a) obtained from Example 3 was used for a sample, and anticancer activity to the mouse tumor cell line L1210 was measured.
The mice used were 5-week-old BDF1 male mice (19 to 20 g) that were purchased from Charles River Japan, and adapted for 1 week. The breeding condition of the mouse was set to a temperature of 24±2° C. and a humidity of […] Purified water for drinking was supplied to the mice twice a week, and straws and cages were changed once a week. The experiment was performed using two mice per group. As the tumor cell line, an L1210 mouse blood tumor cell line was used, the cell line was sub-cultured in a Falcon culture flask twice or three times, washed with a phosphorous buffer solution (pH 7.2), quantified under a microscope to produce a cell suspension of 1×10^7/ml, and 100 (1×10^6) […] of the cell suspension was abdominally administered to the mouse using 1 ml of a disposable sterilized injector. The drug was orally administered 24 hours after the cellular transplantation. The concentration of the administered capecitabine was 1.2, 5.7, 28.8, 144, and 720 mg/kg/100 μl for respective mice, and that of the compound of 2a of the present invention was 1.2, 5.8, 28.8 mg/kg/100 μl for respective mice. The capecitabine was dissolved in dimethylsulfoxide and suspended in 0.5% carboxymethyl cellulose, and the compound of 2a was dissolved in distilled water. The samples were administered to the mice five times a week for 3 weeks, for a total of 15 times, starting 24 hours after the tumor cell administration. The anticancer activity was determined as increased life span to control.

[3] = test system: mouse tumor cell line L1210; test: Anticancer activity on L1210 in BDF1 mice, increased life span (Example 35, Table 5); format: in vivo; details: 15 times; for Average life day: control 17.8
Method: The mice used were 5-week-old BDF1 male mice (19 to 20 g) that were purchased from Charles River Japan, and adapted for 1 week. The breeding condition of the mice was set to a temperature of 24±2° C. and a humidity of […] Purified water for drinking water was supplied to the mice twice a week, and straws and cages were changed once a week. The experiment was performed using two mice per group. […] The drug was orally administered 24 hours after the cellular transplantation. […] The capecitabine was dissolved in dimethylsulfoxide and suspended in 0.5% carboxymethyl cellulose, and the compound of 2a was dissolved in distilled water. […] The anticancer activity was determined as increased life span.

[4] = test system: mouse tumor cell line L1210; test: Anticancer activity on L1210 in BDF1 mice, increased life span (Example 6, Table 2); format: in vivo; details: for Increased life span (%) / Average survival date: 15 times; for Average survival date: control 17.8
Method: The mice used were 5-week-old BDF1 male mice (19 to 20 g) that were purchased from Charles River Japan, and adapted for 1 week. The breeding condition of the mice was set to a temperature of 24±2° C. and a humidity of 50±1° C. Purified water for drinking was supplied to the mice twice a week, and straws and cages were changed once a week. The experiment was performed using two mice per group. As the tumor cell line, an L1210 mouse blood tumor cell line was used, and the cell line was sub-cultured in a Falcon culture flask twice or three times, washed with a phosphorous buffer solution (pH 7.2), and quantified under a microscope to produce a cell suspension of 1×10^7/ml, and 100 (1×10^6) ml of the cell suspension was abdominally administered to the mouse using 1 ml of a disposable sterilized injector. The drug was orally administered 24 hours after the cellular transplantation. […] The samples were administered to the mice five times a week for 3 weeks, for a total of 15 times, starting 24 hours after the tumor cell administration. The anticancer activity was determined as increased life span to control.

Row | SMILES | Life maintenance rate (%) ([3]; 1.2 mg/kg/day oral) | Average life day ([3]; 1.2 mg/kg/day oral) [days] | Life maintenance rate (%) ([3]; 5.8 mg/kg/day oral) | Average life day ([3]; 5.8 mg/kg/day oral) [days] | Life maintenance rate (%) ([3]; 28.8 mg/kg/day oral) | Average life day ([3]; 28.8 mg/kg/day oral) [days] | IC50 Cancer cell line SK-MEL2 [1] [µg/mL] | Increased life span (%) ([4]; 5.8 mg/kg/day oral) | Average survival date ([4]; 5.8 mg/kg/day oral) [days] | Increased life span (%) ([4]; 28.8 mg/kg/day oral) | Average survival date ([4]; 28.8 mg/kg/day oral) [days] | IC50 Cancer cell line HCT15 (HCT15 (colon cancer)) [µg/mL] | IC50 Cancer cell line A549 (A549 (lung cancer)) [µg/mL] | IC50 Cancer cell line SK-OV-3 (SK-OV-3 (ovarian cancer)) [µg/mL] | Increased life span (%) ([2]; 0.13 mmol/kg/day oral) | Average life maintenance day ([2]; 0.13 mmol/kg/day oral) [days] | Increased life span (%) ([2]; 0.67 mmol/kg/day oral) | Average life maintenance day ([2]; 0.67 mmol/kg/day oral) [days] | Increased life span (%) ([2]; 1.5 mmol/kg/day oral) | Average life maintenance day ([2]; 1.5 mmol/kg/day oral) [days] | other results
1 | O=c1[nH]cc(F)c(=O)[nH]1 [Example 5-FU, 5-fluorouracil, reference compound] | – | – | – | – | – | – | – | – | – | – | – | – | – | – | – | – | – | – | – | – | IC50 ([1]; Homo sapiens, SK-MEL-2, 72 hours, Table 3, read-out: IC50 Cancer cell line SK-MEL2): 0.63 µg/mL (≈ 4.84 µM); IC50 (HCT15 (colon cancer); Table 1, read-out: IC50 Concentration (μg/ml) HCT15): 0.11 µg/mL (≈ 0.846 µM); IC50 (HCT15 (colon cancer); Table 3, read-out: IC50 Cancer cell line HCT15): 0.11 µg/mL (≈ 0.846 µM); IC50 (A549 (lung cancer); Homo sapiens, A549, 72 hours, Table 3, read-out: IC50 Cancer cell line A549): 0.26 µg/mL (≈ 2 µM); IC50 (SK-OV-3 (ovarian cancer); Table 1, read-out: IC50 Concentration (μg/ml) SK-OV-3): 0.03 µg/mL (≈ 0.231 µM); IC50 (SK-OV-3 (ovarian cancer); Table 3, read-out: IC50 Cancer cell line SK-OV-3): 0.03 µg/mL (≈ 0.231 µM); Increased life span (%) ([2]; 0.15 mmol/kg/day): 62.5%; Average life maintenance day ([2]; 0.15 mmol/kg/day): 14.3 days; Increased life span (%) ([2]; 0.23 mmol/kg/day): 87.5%; Average life maintenance day ([2]; 0.23 mmol/kg/day): 16.5 days
2 | C#CCOC(=O)Nc1nc(=O)n([C@@H]2O[C@H](C(=O)O)[C@@H](O)[C@H]2O)cc1F [Example 3, 5′-deoxy-N^4-(propargyloxycarbonyl)-5-fluorocytosine-5′-carboxylic acid] | 8 | 20.1 | 11 | 20.6 | 23 | 21.9 | 0.007 (≈ 0.0196 µM) | 11 | 20.6 | 23 | 21.9 | 0.040 (≈ 0.112 µM) | 0.005 (≈ 0.014 µM) | 0.005 (≈ 0.014 µM) | – | – | – | – | – | – | Increased life span (%) ([4]; 1.2 mg/kg/day oral): 8%; Average survival date ([4]; 1.2 mg/kg/day oral): 20.1 days; anticancer activity in vivo ([4]; summary of Table 2, animal experiment): good anticancer activity in vivo
3 | C=CCOC(=O)Nc1nc(=O)n([C@@H]2O[C@H](C(=O)O)[C@@H](O)[C@H]2O)cc1F [Example 30, 5′-deoxy-N^4-(allyloxycarbonyl)-5-fluorocytosine-5′-carboxylic acid] | 25 | 22.1 | 39 | 24.8 | 44 | 25.7 | 0.008 (≈ 0.0223 µM) | – | – | – | – | 0.032 (≈ 0.0891 µM) | 0.04 (≈ 0.111 µM) | 0.008 (≈ 0.0223 µM) | – | – | – | – | – | – | –
4 | CCOC(=O)Nc1nc(=O)n([C@@H]2O[C@H](C(=O)O)[C@@H](O)[C@H]2O)cc1F [Example 25, 5′-deoxy-N^4-(ethyloxycarbonyl)-5-fluorocytosine-5′-carboxylic acid] | – | – | – | – | – | – | 0.16 (≈ 0.461 µM) | – | – | – | – | 0.47 (≈ 1.35 µM) | 0.49 (≈ 1.41 µM) | 0.16 (≈ 0.461 µM) | – | – | – | – | – | – | –
5 | CCCCCOC(=O)Nc1nc(=O)n([C@@H]2O[C@H](C)[C@@H](O)[C@H]2O)cc1F [Capecitabine, 5′-deoxy-N^4-(pentyloxycarbonyl)-5-fluorocytosine] | 6 | 18.9 | 8 | 19.2 | 14 | 20.2 | – | 8 | 19.2 | 14 | 20.2 | – | – | – | 6.8 | 9.4 | 9.1 | 9.6 | 42.0 | 12.5 | Life maintenance rate (%) ([3]; 144 mg/kg/day oral): 15%; Average life day ([3]; 144 mg/kg/day oral): 20.1 days; Life maintenance rate (%) ([3]; 720 mg/kg/day oral): 30%; Average life day ([3]; 720 mg/kg/day oral): 22.8 days; Increased life span (%) ([4]; 144 mg/kg/day oral): 15%; Average survival date ([4]; 144 mg/kg/day oral): 20.1 days; Increased life span (%) ([4]; 720 mg/kg/day oral): 30%; Average survival date ([4]; 720 mg/kg/day oral): 22.8 days
6 | CCCCCOC(=O)Nc1nc(=O)n([C@@H]2O[C@H](C(=O)O)[C@@H](O)[C@H]2O)cc1F [Example 28, 5′-deoxy-N^4-(pentyloxycarbonyl)-5-fluorocytosine-5′-carboxylic acid] | – | – | – | – | – | – | 0.03 (≈ 0.0771 µM) | – | – | – | – | 0.12 (≈ 0.308 µM) | 0.17 (≈ 0.437 µM) | 0.03 (≈ 0.0771 µM) | 3.4 | 9.1 | 28.4 | 11.3 | 91.9 | 16.8 | –
